From patent publication US10933032B2, “Methods for the treatment of cancer using coenzyme Q10 combination therapies” (Berg LLC, priority 2013, dated 2021)

Key:
[1] = system: Melanoma (Skmel 28); experiment: Induction of early apoptosis (Bcl-2, annexin V, or caspase activation); format: cell-based; conditions: SKIN: Melanoma (Skmel 28)
Experimental: The effects of Coenzyme Q10 treatment on a variety of oncogenic and normal cell lines were examined and compared. The sensitivity of cells to Coenzyme Q10 was assessed by monitoring induction of apoptosis. CoQ10 treatment of cells was carried out as described in detail below in the Materials and Methods. Induction of apoptosis was assessed in the treated cells by monitoring indicators of early apoptosis (e.g., Bcl-2 expression, caspase activation and by using annexin V assays) as described below. From these studies, the minimal CoQ10 dosage, e.g., concentration of CoQ10 and time of treatment, required to induce apoptosis in the panel of cell lines was determined.
Cells were cultured in T-75 flasks with relevant medium supplemented with 10% Fetal Bovine Serum (FBS), 1% PSA (penicillin, streptomycin, amphotericin B) (Invitrogen and Cellgro) in a 37° C. incubator with 5% CO2 levels until 70-80% confluence was reached. To harvest cells for treatment, flasks were primed with 1 mL Trypsin, aspirated, trypsinized with an additional 3 mL, and incubated at 37° C. for 3-5 minutes. Cells were then neutralized with an equal volume of media and the subsequent solution was centrifuged at […] for 8 minutes. The supernatant was aspirated and the cells were resuspended with 8.5 ml of media. A mixture of 500 ul of the resuspension and 9.5 ml of […] was read twice by a coulter counter and the appropriate number of cells to be seeded into each dish was determined. Control and concentration ranging from 0-200 μM groups were examined in triplicate. From a 500 μM CoQ-10 stock solution, serial dilutions were performed to achieve desired experimental concentration in appropriate dishes. Dishes were incubated in a 37° C. incubator with 5% CO2 levels for 0-72 hours depending on cell type and experimental protocol.
Following cell treatment incubation period was complete, protein isolation was performed. Dishes of all treatment groups were washed twice with 2 ml, and once with 1 ml of ice cold 1× Phosphate Buffered Saline (PBS). The PBS was aspirated from the dishes after the initial 2 washes only. Cells were gently scraped and collected into microcentrifuge tubes using the final volume from the third wash and centrifuged at 10,000 rpm for 10 minutes. After centrifugation, the supernatant was aspirated and the pellet was lysed with 50 uL of lysis buffer (1 uL of protease and phosphotase inhibitor for every 100 uL of lysis buffer). Samples were then frozen overnight at −20° C.
After the cell treatment incubation period was complete, protein isolation was performed. Flasks of all treatment groups were washed twice with 5 mL, and once with 3 mL of ice cold 1×PBS. The PBS was aspirated from the flasks after the first 2 washes only. Cells were gently scraped and collected into 15 mL centrifuge tubes using the final volume from the third wash and centrifuged for at 10,000 rpm for 10 minutes. After centrifugation, the supernatant was aspirated and the pellet was lysed with an appropriate amount of lysis buffer (1 uL of protease and phosphotase inhibitor for every 100 uL of lysis buffer). Lysis buffer volume was dependent on pellet size. Samples were transferred in microcentrifuge tubes and frozen overnight at −20° C.
Samples were thawed at […] and sonicated to ensure homogenization the day following protein isolation. Protein quantification was performed using the micro BCA protein assay kit (Pierce). To prepare samples for Immuno-blotting, a 1:19 solution of betamercaptoethanol (Sigma) to sample buffer (Bio-Rad) was prepared. Samples were diluted 1:1 with the betamercaptoethanol-sample buffer solution, boiled at 95° C. for 5 minutes, and frozen overnight at −20° C.
The volume of sample to load per well was determined using the raw mean concentration of protein obtained from the BCA protein assay. Approximately 30-60 μg of protein were loaded for each treatment time point. […]

[2] = system: normal cells, including keratinocytes and dermal fibroblasts; experiment: Proliferation and migration of normal cells; format: cell-based

With `COC1=C(OC)C(=O)C(C/C=C(\C)CC/C=C(\C)CC/C=C(\C)CC/C=C(\C)CC/C=C(\C)CC/C=C(\C)CC/C=C(\C)CC/C=C(\C)CC/C=C(\C)CCC=C(C)C)=C(C)C1=O` [CoQ10, Coenzyme Q10] the “Indication of Early apoptosis (Bcl-2, annexin V, or caspase activation)” value [1] was “Strong”, the “Minimal CoQ10 concentration required for induction of early apoptosis, Concentration” value [1] was 20 µM and the “Minimal treatment time required for induction of early apoptosis, Time” value [1] was 24 h. The “Proliferation and migration in normal cells” value [2] was “increased proliferation and migration”.
